From patent publication US9790201B2, “Piperidine and azepine derivatives as prokineticin receptor modulators” (TAKEDA PHARMACEUTICAL COMPANY LIMITED, priority 2013, dated 2017)
Where a name gives a salt, the structure may show the parent alone.

What follows are compounds tested against human PKR1 receptors (Homo sapiens (Human), UniProt Q8TCW9) (assay: PKR1 antagonist assay: block of PK1-mediated intracellular calcium release (FLIPR Tetra)). Settings: RBL2H3 cells expressing human PKR1; stimulation with PK1 at EC80; calcium fluorescence.
Type: cell-based
Experimental: Prokineticin receptor 1 (PKR1) antagonists may be functionally assessed by measurement of change in intracellular calcium levels induced by Gq mediated increase in inositol triphosphate (IP3) levels. The ability of a compound to block the intracellular release of calcium mediated by PK1 in RBL2H3 cells expressing human PKR1 receptors is determined as a measure of the compound's antagonist activity in vitro.
Approximately 10,000 cells per assay well are seeded in normal culture medium in a 384 well plate (Corning). Twenty-four hours after seeding, the cells are loaded with a calcium sensitive fluorescent dye by replacing the culture medium with assay buffer (1× Hanks buffered saline, 25 mM HEPES, 0.1% w/v fatty acid free BSA (bovine serum albumin), pH 7.4) containing 1 mM probenecid and 1× Calcium 5 Reagent (Molecular Devices). Cells are incubated at 37° C. for 1 hour to allow for dye uptake.
To test for antagonist activity, test compounds at a final concentration range between 0.32 nM-10 μM (diluted in assay buffer) are added to the assay wells and allowed to incubate for 10 minutes prior to stimulation with PK1. After incubation with test compounds the assay plate is placed in a FLIPR Tetra (Molecular Devices) and PK1 (diluted in assay buffer) is added at the determined EC80 concentration (final). Ligand-dependent changes in intracellular calcium levels are determined by measuring changes in fluorescence of the dye at […] following excitation at 485 nm.

human PKR1 receptors, sequence (Q8TCW9 whole entry): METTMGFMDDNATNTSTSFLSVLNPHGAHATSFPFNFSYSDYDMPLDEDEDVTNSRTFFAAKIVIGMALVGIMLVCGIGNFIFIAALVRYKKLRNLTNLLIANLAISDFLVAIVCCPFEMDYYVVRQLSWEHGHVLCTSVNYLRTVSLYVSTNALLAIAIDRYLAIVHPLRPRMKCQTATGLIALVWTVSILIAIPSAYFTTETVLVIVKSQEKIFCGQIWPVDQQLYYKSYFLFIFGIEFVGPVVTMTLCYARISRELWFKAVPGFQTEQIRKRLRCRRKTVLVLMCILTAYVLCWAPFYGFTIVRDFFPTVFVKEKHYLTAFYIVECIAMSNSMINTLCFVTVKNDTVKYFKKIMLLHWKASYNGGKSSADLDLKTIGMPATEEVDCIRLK

SMILES	IC50 [µM]
CN(C)c1cc(C(=O)N2CCCC(c3ccccc3OC(F)(F)F)C2)ccn1 (stereo not shown) [Example 60, N,N-Dimethyl-4-({3-[2-(trifluoromethoxy)phenyl]piperidin-1-yl}carbonyl)pyridin-2-amine]	1.6
Cn1cc(C(=O)N2CCCC(c3ccc(Cl)cc3)C2)cn1 (stereo not shown) [Example 89, 3-(4-Chlorophenyl)-1-[(1-methyl-1H-pyrazol-4-yl)carbonyl]piperidine]	1.28
Cn1cc(C(=O)N2CCCC(c3ccc(Cl)cc3C(F)(F)F)C2)c(N)n1 (stereo not shown) [Example 100, 4-({3-[4-Chloro-2-(trifluoromethyl)phenyl]piperidin-1-yl}carbonyl)-1-methyl-1H-pyrazol-3-amine]	0.54
Cc1ccccc1C1CCCN(C(=O)c2ccnc(N3CCC3)c2)C1 (stereo not shown) [Example 23, 2-(Azetidin-1-yl)-4-{[3-(2-methylphenyl)piperidin-1-yl]carbonyl}pyridine]	0.96
CN(C)c1cc(C(=O)N2CCCC(c3ccc(Cl)cc3F)C2)ccn1 (stereo not shown) [Example 25, 4-{[3-(4-Chloro-2-fluorophenyl)piperidin-1-yl]carbonyl}-N,N-dimethylpyridin-2-amine]	0.53
COc1ccc(C2CCCCN(C(=O)c3cnnc(N(C)C)c3)C2)cc1 (stereo not shown) [Example 114, 5-{[3-(4-Methoxyphenyl)azepan-1-yl]carbonyl}-N,N-dimethylpyridazin-3-amine]	1.43
Cc1cc(C(=O)N2CCCC(c3ccc(Cl)cc3C)C2)cnn1 (stereo not shown) [Example 85, 5-{[3-(4-Chloro-2-methylphenyl)piperidin-1-yl]carbonyl}-3-methylpyridazine]	1.14
Cc1cc(C(=O)N2CCCC(c3ccc(Cl)cc3C(F)(F)F)C2)ccn1 (stereo not shown) [Example 10, 4-({3-[4-Chloro-2-(trifluoromethyl)phenyl]piperidin-1-yl}carbonyl)-2-methylpyridine]	1.17
CCCN(C)c1cc(C(=O)N2CCCC(c3ccc(C)cc3)C2)ccn1 (stereo not shown) [Example 39, N-Methyl-4-{[3-(4-methylphenyl)piperidin-1-yl]carbonyl}-N-propylpyridin-2-amine]	8.22
COc1ccc(C2CCCN(C(=O)c3ccnc(N(C)C)c3)C2)cc1 (stereo not shown) [Example 47, 4-{[3-(4-Methoxyphenyl)piperidin-1-yl]carbonyl}-N,N-dimethylpyridin-2-amine]	0.46
Cc1ccc(C2CCCN(C(=O)c3ccnc(N4CC(F)(F)C4)c3)C2)cc1 (stereo not shown) [Example 38, 2-(3,3-Difluoroazetidin-1-yl)-4-{[3-(4-methylphenyl)piperidin-1-yl]carbonyl}pyridine]	6.5
CCc1cc(C(=O)N2CCCC(c3ccc(C)cc3)C2)ccn1 (stereo not shown) [Example 20, 2-Ethyl-4-{[3-(4-methylphenyl)piperidin-1-yl]carbonyl}pyridine]	1.21
Cc1ccc(C2CCCN(C(=O)c3ccnc(N4CC(O)C4)c3)C2)cc1 (stereo not shown) [Example 41, 1-(4-{[3-(4-Methylphenyl)piperidin-1-yl]carbonyl}pyridin-2-yl)azetidin-3-ol]	8.46
COc1cccc([C@@H]2CCCN(C(=O)c3ccnc(N(C)C)c3)C2)c1 [Example 36, 4-{[(3S)-3-(3-Methoxyphenyl)piperidin-1-yl]carbonyl}-N,N-dimethylpyridin-2-amine]	5.51
CN(C)c1cc(C(=O)N2C=C(c3ccc(Cl)cc3Cl)CCC2)ccn1 [Example 106, 4-{[5-(2,4-Dichlorophenyl)-1,2,3,4-tetrahydropyridin-1-yl]carbonyl}-N,N-dimethylpyridin-2-amine]	1.23
CN(C)c1cc(C(=O)N2CCC[C@@H](c3ccc(Cl)cc3)C2)ccn1 [Example 17, 4-{[(3S)-3-(4-Chlorophenyl)piperidin-1-yl]carbonyl}-N,N-dimethylpyridin-2-amine]	0.84
CC(C)n1cc(C(=O)N2CCCC(c3ccc(Cl)cc3)C2)cn1 (stereo not shown) [Example 91, 3-(4-Chlorophenyl)-1-{[1-(propan-2-yl)-1H-pyrazol-4-yl]carbonyl}piperidine]	0.96
COc1ccc(C2CCCCN(C(=O)c3ccnc(N(C)C)c3)C2)cc1 (stereo not shown) [Example 109, 4-{[3-(4-Methoxyphenyl)azepan-1-yl]carbonyl}-N,N-dimethylpyridin-2-amine]	0.96
CN(C)c1cc(C(=O)N2CCCCC(c3ccccc3)C2)ccn1 (stereo not shown) [Example 107, N,N-Dimethyl-4-[(3-phenylazepan-1-yl)carbonyl]pyridin-2-amine]	2.97
COc1cc(C(=O)N2CCCC(c3ccc(Cl)cc3C(F)(F)F)C2)ccn1 (stereo not shown) [Example 9, 4-({3-[4-Chloro-2-(trifluoromethyl)phenyl]piperidin-1-yl}carbonyl)-2-methoxypyridine]	1.37

Stronger by IC50, values ahead:

IC50 [µM]	SMILES
0.41	COc1ccccc1C1CCCN(C(=O)c2ccnc(N(C)C)c2)C1 (stereo not shown) [Example 48, 4-{[3-(2-Methoxyphenyl)piperidin-1-yl]carbonyl}-N,N-dimethylpyridin-2-amine]
0.35	COc1cc(C(=O)N2CCCC(c3ccc(Cl)cc3C)C2)cnn1 (stereo not shown) [Example 74, 5-{[3-(4-Chloro-2-methylphenyl)piperidin-1-yl]carbonyl}-3-methoxypyridazine]
0.17	CCn1cc(C(=O)N2CCCC(c3ccc(Cl)cc3C(F)(F)F)C2)cn1 (stereo not shown) [Example 98, 3-[4-Chloro-2-(trifluoromethyl)phenyl]-1-[(1-ethyl-1H-pyrazol-4-yl)carbonyl]piperidine]
0.18	CN(C)c1cc(C(=O)N2CCC[C@H](c3ccc(Cl)cc3)C2)ccn1 [Example 18, 4-{[(3R)-3-(4-Chlorophenyl)piperidin-1-yl]carbonyl}-N,N-dimethylpyridin-2-amine]
0.07	CNc1cc(C(=O)N2CCCC(c3ccc(Cl)cc3C)C2)cnn1 (stereo not shown) [Example 71, 5-{[3-(4-Chloro-2-methylphenyl)piperidin-1-yl]carbonyl}-N-methylpyridazin-3-amine]
0.28	CCc1cc(C(=O)N2CCCC(c3ccc(Cl)cc3C(F)(F)F)C2)ccn1 (stereo not shown) [Example 6, 4-({3-[4-Chloro-2-(trifluoromethyl)phenyl]piperidin-1-yl}carbonyl)-2-ethylpyridine]
0.1	CCOc1cc(Cl)ccc1C1CCCN(C(=O)c2ccnc(N(C)C)c2)C1 (stereo not shown) [Example 61, 4-{[3-(4-Chloro-2-ethoxyphenyl)piperidin-1-yl]carbonyl}-N,N-dimethylpyridin-2-amine]
0.22	CN(C)c1cc(C(=O)N2CCCC(c3ccccc3C(F)(F)F)C2)ccn1 (stereo not shown) [Example 45, N,N-Dimethyl-4-({3-[2-(trifluoromethyl)phenyl]piperidin-1-yl}carbonyl)pyridin-2-amine]
0.03	CNc1cc(C(=O)N2CCC[C@H](c3ccc(Cl)cc3C)C2)cnn1 [Example 72, 5-{[(3R)-3-(4-Chloro-2-methylphenyl)piperidin-1-yl]carbonyl}-N-methylpyridazin-3-amine]
0.09	Cc1cc(Cl)ccc1C1CCCN(C(=O)c2ccnc(N3CCC3)c2)C1 (stereo not shown) [Example 33, 2-(Azetidin-1-yl)-4-{[3-(4-chloro-2-methylphenyl)piperidin-1-yl]carbonyl}pyridine]
0.05	CNc1cc(C(=O)N2CCCC(c3ccc(OC)cc3C(F)(F)F)C2)ccn1 (stereo not shown) [Example 64, 4-({3-[4-Methoxy-2-(trifluoromethyl)phenyl]piperidin-1-yl}carbonyl)-N-methylpyridin-2-amine formate]
0.07	CCc1cc(C(=O)N2CCCC(c3ccc(Cl)cc3C)C2)ccn1 (stereo not shown) [Example 4, 4-{[3-(4-Chloro-2-methylphenyl)piperidin-1-yl]carbonyl}-2-ethylpyridine]
0.13	CNc1cc(C(=O)N2CCCC(c3ccc(OC)cc3C)C2)cnn1 (stereo not shown) [Example 79, 5-{[3-(4-Methoxy-2-methylphenyl)piperidin-1-yl]carbonyl}-N-methylpyridazin-3-amine]
0.04	CNc1cc(C(=O)N2CCCC(c3ccc(OC)cc3C)C2)ccn1 (stereo not shown) [Example 63, 4-{[3-(4-Methoxy-2-methylphenyl)piperidin-1-yl]carbonyl}-N-methylpyridin-2-amine]
0.19	Cc1ccccc1C1CCCN(C(=O)c2ccnc(N(C)C)c2)C1 (stereo not shown) [Example 14, N,N-Dimethyl-4-{[3-(2-methylphenyl)piperidin-1-yl]carbonyl}pyridin-2-amine]
0.43	CNc1cc(C(=O)N2CCCCC(c3ccc(Cl)cc3)C2)ccn1 (stereo not shown) [Example 111, 4-{[3-(4-Chlorophenyl)azepan-1-yl]carbonyl}-N-methylpyridin-2-amine]
0.21	COc1ccc(C2CCCN(C(=O)c3cnnc(N(C)C)c3)C2)c(C(F)(F)F)c1 (stereo not shown) [Example 82, 5-({3-[4-Methoxy-2-(trifluoromethyl)phenyl]piperidin-1-yl}carbonyl)-N,N-dimethylpyridazin-3-amine]
